Each compound was assayed against T1, viral kinase pUL-97 (Human cytomegalovirus, UniProt P16788) (assay: UL97 kinase assay on Immobilon plate). Details: inhibition of UL 97 kinase activity; class by IC50 / % inhibition at 10 or 100 μM; read-out: Activity Class [A, B, C].
T1 construct: The pUL-97 gene was cloned into a baculovirus vector; GST (glutathione S-transferase) (N); made in house; host or cells: Sf9 insect cells, baculovirus
Type: biochemical
Method: UL97 Kinase-Assay on Immobilon Plate
The effect of pyrazine derivatives of this invention was tested on the activity of the viral kinase pUL-97. This kinase is derived from human cytomegalovirus (HCMV) (M. Marschall et al., Journal of General Virology, 2001, 82, 1439-1450). The pUL-97 gene was cloned into a baculovirus vector in order to produce GST (glutathione S-transferase) fusion protein. Insect cells (Sf9) were infected and GST-UL-97 purified via glutathione affinity columns according to standard procedures.
The pUL-97 kinase reaction was performed as described (M. Marschall et al., Journal of General Virology, 2001, 82, 1439-1450). Briefly, 10 μl Assay buffer (3 μM ATP, 60 μg/ml myelin basic protein (MBP) as substrate), 1.0 μCi γ-[^33P]ATP and 10 μl Basic buffer (20 mM Tris-HCl pH7.5, 0.5 mM MnCl2, 1 mM DTT (Dithiothreitol)) were given to the test tube before adding various concentrations of pyrazine derivatives. The reaction was started by adding 0.2 μl pUL-97 kinase, purified from infected Sf9-insect cells as described above. The total volume was adjusted with Basic buffer to a final volume of 30 μl. The reaction mix was incubated for 1 hr at 30° C. For negative control, 10 μl 0.1M EDTA (Ethylene Diamine tetraacetate) was added to reaction mix before addition of pUL-97 protein kinase. The reaction was stopped by addition of 10 μl 0.1 M EDTA.
Measuring Incorporation of Radioactivity:
The Immobilon plate (Millipore) was rinsed with 50 μl methanol/well. Following addition of 100 μl 0.1 M EDTA, 20 μl of each kinase reaction mix was added to one well of the Immobilon plate. Each well was washed 4× with 250 μl 0.75% phosphoric acid and 1× with 50 μl methanol. After addition of 50 μl scintillation cocktail (Roth, Germany) per well incorporation of radioactivity was measured using a Betareader (Wallac) and enzymatic activity calculated.

T1 sequence (P16788 whole entry): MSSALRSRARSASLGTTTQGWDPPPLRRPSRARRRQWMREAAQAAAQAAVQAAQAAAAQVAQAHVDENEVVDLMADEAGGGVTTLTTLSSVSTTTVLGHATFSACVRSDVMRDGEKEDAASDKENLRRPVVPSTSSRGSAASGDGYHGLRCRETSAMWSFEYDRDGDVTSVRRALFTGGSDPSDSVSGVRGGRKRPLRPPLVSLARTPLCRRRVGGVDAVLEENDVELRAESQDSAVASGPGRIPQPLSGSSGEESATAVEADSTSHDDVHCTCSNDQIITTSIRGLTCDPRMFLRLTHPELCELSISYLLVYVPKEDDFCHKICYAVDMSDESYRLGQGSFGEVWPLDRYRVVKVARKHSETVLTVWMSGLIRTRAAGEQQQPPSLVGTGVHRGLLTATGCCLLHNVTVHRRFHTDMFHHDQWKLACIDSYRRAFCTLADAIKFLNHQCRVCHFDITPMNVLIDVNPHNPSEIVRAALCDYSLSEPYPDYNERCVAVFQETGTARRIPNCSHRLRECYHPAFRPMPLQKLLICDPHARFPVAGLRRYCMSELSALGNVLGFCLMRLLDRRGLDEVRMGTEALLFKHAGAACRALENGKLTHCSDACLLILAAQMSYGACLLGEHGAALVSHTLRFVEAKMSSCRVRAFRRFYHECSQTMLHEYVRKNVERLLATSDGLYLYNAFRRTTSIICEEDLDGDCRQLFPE

IC50 [µM] | SMILES
1 to 10 | COc1ccc(N2CCN(c3cncc(-c4cccs4)n3)CC2)cc1OC [compound 44, 4-(3,4-Dimethoxy-phenyl)-6′-thiophen-2-yl-3,4,5,6-tetrahydro-2H-[1,2′]bipyrazinyl]
1 to 10 | CCOc1ccc(-c2cncc(N3CCN(c4ccc(OC)c(OC)c4)CC3)n2)cc1 [compound 45, 4-(3,4-Dimethoxy-phenyl)-6′-(4-ethoxy-phenyl)-3,4,5,6-tetrahydro-2H-[1,2′]bipyrazinyl]
1 to 10 | Fc1ccc(-c2cncc(N3CCN(c4ccncc4)CC3)n2)c(F)c1 [compound 46, 6′-(2,4-Difluoro-phenyl)-4-pyridin-4-yl-3,4,5,6-tetrahydro-2H-[1,2′]bipyrazinyl]
1 to 10 | Clc1ccc(-c2cncc(N3CCN(c4ccncc4)CC3)n2)cc1 [compound 47, 6′-(4-Chloro-phenyl)-4-pyridin-4-yl-3,4,5,6-tetrahydro-2H-[1,2′]bipyrazinyl]
1 to 10 | Fc1ccc(-c2cncc(NCc3ccco3)n2)c(F)c1 [compound 48, [6-(2,4-Difluoro-phenyl)-pyrazin-2-yl]-furan-2-ylmethyl-amine]
1 to 10 | c1ccc(-c2cncc(N3CCN(c4ccccn4)CC3)n2)cc1 [compound 49]
1 to 10 | Cc1ccc(-c2cncc(N3CCN(c4ccccn4)CC3)n2)cc1C [compound 50, 6′-(3,4-Dimethyl-phenyl)-4-pyridin-2-yl-3,4,5,6-tetrahydro-2H-[1,2′]bipyrazinyl]
10 to 100 | Cc1ccc(-c2cncc(NCc3ccco3)n2)cc1C [compound 51, [6-(3,4-Dimethyl-phenyl)-pyrazin-2-yl]-furan-2-ylmethyl-amine]
10 to 100 | OCc1cccc(-c2cncc(N3CCN(c4ccncc4)CC3)n2)c1 [compound 52, [3-(4-Pyridin-4-yl-3,4,5,6-tetrahydro-2H-[1,2′]bipyrazinyl-6′-yl)-phenyl]-methanol]
1 to 10 | Clc1cccc(-c2cncc(N3CCN(c4ccccn4)CC3)n2)c1 [compound 53, 6′-(3-Chloro-phenyl)-4-pyridin-2-yl-3,4,5,6-tetrahydro-2H-[1,2′]bipyrazinyl]
10 to 100 | c1cncc(-c2cncc(N3CCN(c4ccncc4)CC3)n2)c1 [compound 54, 4-Pyridin-4-yl-6′-pyridin-3-yl-3,4,5,6-tetrahydro-2H-[1,2′]bipyrazinyl]
10 to 100 | COc1ccc(C(C)C)cc1-c1cncc(N2CCN(c3ccncc3)CC2)n1 [compound 55, 6′-(5-Isopropyl-2-methoxy-phenyl)-4-pyridin-4-yl-3,4,5,6-tetrahydro-2H-[1,2′]bipyrazinyl]
10 to 100 | Fc1cccc(-c2cncc(N3CCN(c4ccccn4)CC3)n2)c1 [compound 56, 6′-(3-Fluoro-phenyl)-4-pyridin-2-yl-3,4,5,6-tetrahydro-2H-[1,2′]bipyrazinyl]
10 to 100 | Oc1ccc(-c2cncc(N3CCN(c4ccncc4)CC3)n2)cc1 [compound 57, 4-(4-Pyridin-4-yl-3,4,5,6-tetrahydro-2H-[1,2′]bipyrazinyl-6′-yl)-phenol]
10 to 100 | O=C(c1ccco1)N1CCN(c2cncc(-c3cccc(CO)c3)n2)CC1 [compound 58, Furan-2-yl-[6′-(3-hydroxymethyl-phenyl)-2,3,5,6-tetrahydro-[1,2′]bipyrazinyl-4-yl]-methanone]
10 to 100 | NCc1ccc(-c2cncc(N3CCN(C(=O)c4ccco4)CC3)n2)cc1 [compound 59, [6′-(4-Aminomethyl-phenyl)-2,3,5,6-tetrahydro-[1,2′]bipyrazinyl-4-yl]-furan-2-yl-methanone]
10 to 100 | COc1ccc(N2CCN(c3cncc(-c4ccc(CN)cc4)n3)CC2)cc1OC [compound 60, 4-[4-(3,4-Dimethoxy-phenyl)-3,4,5,6-tetrahydro-2H-[1,2′]bipyrazinyl-6′-yl]-benzylamine]
10 to 100 | OCc1ccc(-c2cncc(N3CCN(c4cccc5[nH]ccc45)CC3)n2)cc1 [compound 61, {4-[4-(1H-Indol-4-yl)-3,4,5,6-tetrahydro-2H-[1,2′]bipyrazinyl-6′-yl]-phenyl}-methanol]
1 to 10 | N#Cc1ccccc1N1CCN(c2cncc(-c3ccc(F)c(Cl)c3)n2)CC1 [compound 62, 2-[6′-(3-Chloro-4-fluoro-phenyl)-2,3,5,6-tetrahydro-[1,2′]bipyrazinyl-4-yl]-benzonitrile]

IC50 [µM] | SMILES
10 to 100 | OCc1cccc(-c2cncc(N3CCN(CCN4CCCC4)CC3)n2)c1 [compound 63, {3-[4-(2-Pyrrolidin-1-yl-ethyl)-3,4,5,6-tetrahydro-2H-[1,2′]bipyrazinyl-6′-yl]-phenyl}-methanol]
1 to 10 | c1cncc(-c2cncc(N3CCN(c4cccc5[nH]ccc45)CC3)n2)c1 [compound 64, 4-(1H-Indol-4-yl)-6′-pyridin-3-yl-3,4,5,6-tetrahydro-2H-[1,2′]bipyrazinyl]
< 1 | CC(=O)c1ccc(-c2cncc(N3CCN(c4ccncc4)CC3)n2)s1 [compound 65, 1-[5-(4-Pyridin-4-yl-3,4,5,6-tetrahydro-2H-[1,2′]bipyrazinyl-6′yl)-thiophen-2-yl]-ethanone]
< 1 | CSc1ccc(-c2cncc(N3CCN(c4ccncc4)CC3)n2)cc1 [compound 66, 6′-(4-Methylsulfanyl-phenyl)-4-pyridin-4-yl-3,4,5,6-tetrahydro-2H-[1,2′]bipyrazinyl]
1 to 10 | c1ccc(-c2cncc(N3CCN(c4ccncc4)CC3)n2)cc1 [compound 67, 6′-Phenyl-4-pyridin-4-yl-3,4,5,6-tetrahydro-2H-[1,2′]bipyrazinyl]
< 1 | c1ccc2sc(-c3cncc(N4CCN(c5ccncc5)CC4)n3)cc2c1 [compound 69, 6′-Benzo[b]thiophen-2-yl-4-pyridin-4-yl-3,4,5,6-tetrahydro-2H-[1,2′]bipyrazinyl]
< 1 | Nc1ncc(-c2ccc3ccccc3c2)nc1N1CCN(c2ccncc2)CC1 [compound 73, 6′-Naphthalen-2-yl-4-pyridin-4-yl-3,4,5,6-tetrahydro-2H-[1,2′]bipyrazinyl-3′-ylamine]
1 to 10 | NC(=O)c1ccc(-c2cnc(N)c(N3CCN(c4ccncc4)CC3)n2)cc1 [compound 74, 4-(3′-Amino-4-pyridin-4-yl-3,4,5,6-tetrahydro-2H-[1,2′]bipyrazinyl-6′-yl)-benzamide]
< 1 | CSc1ccc(-c2cnc(N)c(N3CCN(c4ccncc4)CC3)n2)cc1 [compound 75, 6′-(4-Methylsulfanyl-phenyl)-4-pyridin-4-yl-3,4,5,6-tetrahydro-2H-[1,2′]bipyrazinyl-3′-ylamine]
1 to 10 | Fc1ccc(-c2cncc(N3CCN(c4ccncc4)CC3)n2)cc1 [compound 76, 6′-(4-Fluoro-phenyl)-4-pyridin-4-yl-3,4,5,6-tetrahydro-2H-[1,2′]bipyrazinyl]
< 1 | COc1ccc(-c2cncc(N3CCN(c4ccncc4)CC3)n2)cc1OC [compound 77, 6′-(3,4-Dimethoxy-phenyl)-4-pyridin-4-yl-3,4,5,6-tetrahydro-2H-[1,2′]bipyrazinyl]
1 to 10 | COc1cccc(-c2cncc(N3CCN(c4ccncc4)CC3)n2)c1 [compound 78, 6′-(3-Methoxy-phenyl)-4-pyridin-4-yl-3,4,5,6-tetrahydro-2H-[1,2′]bipyrazinyl]
1 to 10 | c1cc(N2CCN(c3cncc(-c4ccsc4)n3)CC2)ccn1 [compound 79, 4-Pyridin-4-yl-6′-thiophen-3-yl-3,4,5,6-tetrahydro-2H-[1,2′]bipyrazinyl]
10 to 100 | Clc1cccc(N2CCN(c3cncc(-c4ccsc4)n3)CC2)c1 [compound 80, 4-(3-Chloro-phenyl)-6′-thiophen-3-yl-3,4,5,6-tetrahydro-2H-[1,2′]bipyrazinyl]
10 to 100 | Clc1cccc(N2CCN(c3cncc(-c4ccc5ccccc5c4)n3)CC2)c1 [compound 81, 4-(3-Chloro-phenyl)-6′-naphthalen-2-yl-3,4,5,6-tetrahydro-2H-[1,2′]bipyrazinyl]
10 to 100 | Cc1ccccc1-c1cncc(N2CCN(c3cccc(Cl)c3)CC2)n1 [compound 82, 4-(3-Chloro-phenyl)-6′-o-tolyl-3,4,5,6-tetrahydro-2H-[1,2′]bipyrazinyl]
1 to 10 | OCc1ccc(-c2cncc(N3CCN(c4cccc(Cl)c4)CC3)n2)cc1 [compound 83, {4-[4-(3-Chloro-phenyl)-3,4,5,6-tetrahydro-2H-[1,2′]bipyrazinyl-6′-yl]-phenyl}-methanol]
1 to 10 | Clc1cccc(N2CCN(c3cncc(-c4ccoc4)n3)CC2)c1 [compound 84, 4-(3-Chloro-phenyl)-6′-furan-3-yl-3,4,5,6-tetrahydro-2H-[1,2′]bipyrazinyl]
10 to 100 | COc1ccccc1N1CCN(c2cncc(-c3ccsc3)n2)CC1 [compound 85, 4-(2-Methoxy-phenyl)-6′-thiophen-3-yl-3,4,5,6-tetrahydro-2H-[1,2′]bipyrazinyl]

Reference: patent US20080194574A1, “Pyrazine Derivatives As Effective Compounds Against Infectious Diseases” (AXXIMA PHARMACEUTICALS AG, priority 2003, published 2008)
